Experimental data reported in ChEMBL document CHEMBL2073893, “BBB transport and P-glycoprotein functionality using MDR1A (-/-) and wild-type mice. Total brain versus microdialysis concentration profiles of rhodamine-123” (Pharm Res, 1998).

Biological target: ATP-dependent translocase ABCB1 (Mus musculus, UniProt P21447)
Assay: TP_TRANSPORTER: increase in brain concentration in mdr1a(-/-) mouse
Type: functional, organism-based
Conditions: in vivo

ATP-dependent translocase ABCB1, sequence (P21447 whole entry): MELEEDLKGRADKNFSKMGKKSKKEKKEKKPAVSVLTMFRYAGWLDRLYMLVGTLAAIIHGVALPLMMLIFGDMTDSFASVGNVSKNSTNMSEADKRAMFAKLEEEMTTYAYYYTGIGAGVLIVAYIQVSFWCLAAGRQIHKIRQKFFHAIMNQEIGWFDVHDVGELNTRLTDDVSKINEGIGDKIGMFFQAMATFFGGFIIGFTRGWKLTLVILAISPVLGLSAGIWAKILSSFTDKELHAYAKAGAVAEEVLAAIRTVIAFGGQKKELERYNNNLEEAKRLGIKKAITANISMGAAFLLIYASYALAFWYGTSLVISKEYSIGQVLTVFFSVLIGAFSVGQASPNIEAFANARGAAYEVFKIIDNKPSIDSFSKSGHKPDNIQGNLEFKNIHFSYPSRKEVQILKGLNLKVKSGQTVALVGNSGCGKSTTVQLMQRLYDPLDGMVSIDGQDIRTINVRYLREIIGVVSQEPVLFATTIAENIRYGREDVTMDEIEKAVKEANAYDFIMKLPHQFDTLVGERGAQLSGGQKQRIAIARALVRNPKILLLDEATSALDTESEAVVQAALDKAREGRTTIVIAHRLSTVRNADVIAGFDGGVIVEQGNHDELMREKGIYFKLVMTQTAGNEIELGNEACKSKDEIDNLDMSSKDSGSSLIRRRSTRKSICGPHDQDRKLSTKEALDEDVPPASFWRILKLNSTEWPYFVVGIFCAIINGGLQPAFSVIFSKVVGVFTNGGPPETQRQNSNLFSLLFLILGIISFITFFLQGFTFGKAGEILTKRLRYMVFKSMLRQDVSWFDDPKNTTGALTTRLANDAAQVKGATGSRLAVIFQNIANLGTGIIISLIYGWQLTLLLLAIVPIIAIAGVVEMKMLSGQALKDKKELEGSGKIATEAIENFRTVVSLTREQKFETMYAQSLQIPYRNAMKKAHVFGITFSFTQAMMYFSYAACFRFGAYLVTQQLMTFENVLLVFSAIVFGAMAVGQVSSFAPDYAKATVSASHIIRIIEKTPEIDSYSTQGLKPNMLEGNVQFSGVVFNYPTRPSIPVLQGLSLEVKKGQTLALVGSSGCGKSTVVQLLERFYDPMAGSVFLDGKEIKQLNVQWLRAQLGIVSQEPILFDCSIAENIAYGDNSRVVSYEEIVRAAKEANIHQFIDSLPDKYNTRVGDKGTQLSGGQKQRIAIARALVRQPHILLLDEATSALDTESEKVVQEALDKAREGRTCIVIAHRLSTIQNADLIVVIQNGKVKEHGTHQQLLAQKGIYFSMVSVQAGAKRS

COC(=O)c1ccccc1-c1c2ccc(=N)cc-2oc2cc(N)ccc12.Cl [RHODAMINE123]
Activity: substrate [+]
